In patent US9540381B2, “Anti-angiogenesis compound, intermediate and use thereof” (Guangzhou KangRui Biological Pharmaceutical Technology Co., …, priority 2013, dated 2017):
“Also recorded” adds a separate entry of the source.

Legend:
P38-α = molecular target: T1, P38-α (Homo sapiens, UniProt Q16539); test: Inhibition specificity, P38-α; format: biochemical; settings: 5000 nM, average of two tests; read-out: Average Inhibition Rate (%) P38-α
T1 construct: purchased AMPHORA

VEGFR2 = molecular target: T2, VEGFR2 (Homo sapiens, UniProt P35968); test: In vitro inhibition test on VEGFR2 in HUVECs (anti-phosphorylated VEGFR2 blot); format: cell-based; settings: 10 nM, 100 nM and 1 μM, 50 ng/ml VEGF
T2 construct: endogenous in cells; host or cells: primary HUVECs P3-P5
T2 sequence (P35968 20-1356): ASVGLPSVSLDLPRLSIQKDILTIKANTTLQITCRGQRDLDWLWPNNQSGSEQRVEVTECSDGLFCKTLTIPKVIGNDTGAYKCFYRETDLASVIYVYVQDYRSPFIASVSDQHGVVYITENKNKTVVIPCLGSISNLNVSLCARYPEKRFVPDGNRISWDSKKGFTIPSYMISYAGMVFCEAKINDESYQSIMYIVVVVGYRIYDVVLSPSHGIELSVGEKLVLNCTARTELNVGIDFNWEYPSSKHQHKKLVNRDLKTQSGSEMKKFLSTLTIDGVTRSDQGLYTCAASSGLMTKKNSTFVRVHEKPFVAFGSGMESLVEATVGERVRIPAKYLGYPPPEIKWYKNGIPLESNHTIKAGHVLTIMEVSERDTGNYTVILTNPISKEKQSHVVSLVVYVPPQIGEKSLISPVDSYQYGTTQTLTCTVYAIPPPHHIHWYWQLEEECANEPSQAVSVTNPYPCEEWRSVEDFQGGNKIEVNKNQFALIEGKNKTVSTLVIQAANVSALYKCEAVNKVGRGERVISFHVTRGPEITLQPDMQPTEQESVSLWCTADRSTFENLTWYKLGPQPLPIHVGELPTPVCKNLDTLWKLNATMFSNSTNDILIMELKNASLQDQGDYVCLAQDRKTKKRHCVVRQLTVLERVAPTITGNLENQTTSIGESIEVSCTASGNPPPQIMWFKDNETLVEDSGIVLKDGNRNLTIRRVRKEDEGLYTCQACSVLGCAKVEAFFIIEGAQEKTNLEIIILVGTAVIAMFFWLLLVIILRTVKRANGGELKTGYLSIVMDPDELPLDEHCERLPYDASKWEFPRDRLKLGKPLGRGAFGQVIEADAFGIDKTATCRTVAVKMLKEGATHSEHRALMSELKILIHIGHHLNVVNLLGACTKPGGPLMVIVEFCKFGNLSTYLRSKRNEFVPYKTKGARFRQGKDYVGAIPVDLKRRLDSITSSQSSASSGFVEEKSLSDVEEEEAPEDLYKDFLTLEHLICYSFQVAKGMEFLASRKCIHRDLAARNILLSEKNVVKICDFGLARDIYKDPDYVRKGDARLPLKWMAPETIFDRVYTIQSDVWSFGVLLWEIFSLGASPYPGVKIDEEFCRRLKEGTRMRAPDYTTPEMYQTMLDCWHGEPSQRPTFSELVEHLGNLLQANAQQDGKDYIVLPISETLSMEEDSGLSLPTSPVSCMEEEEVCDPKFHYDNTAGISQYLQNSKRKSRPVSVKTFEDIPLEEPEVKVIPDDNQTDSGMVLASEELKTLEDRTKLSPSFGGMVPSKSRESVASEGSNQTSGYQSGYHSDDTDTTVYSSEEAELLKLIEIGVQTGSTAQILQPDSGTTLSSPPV
Description: The experimental method of detecting the inhibition of the compounds of the present invention on VEGFR2 kinase is as follows:
1) The primary cultured human umbilical vein endothelial cells (HUVECs) P3-P5 were transferred to 6 well plate, 2×10^5 cells per well;
2) compounds 2-1, 2-2 and 2-4 of the present invention (the concentrations are 10 nM, 100 nM and 1 μM for each compound) were added when the cells grow to 70-80%, VEGF was a control, incubation for 30 min;
3) 50 ng/ml VEGF (cell Signaling company, US) was added, stimulating for 10 min;
4) nondenature lysis buffer was added to terminate the reaction, and cell lysis buffer was collected to carry out protein quantification;
5) SDS-PAGE electrophoresis, transfer to nitrocellulose membrane, the membrane was cut off and sealed in phosphate tween buffer, TTBS buffer (Tris-buffered saline 0.01% Tween 20, cell Signaling company, US, PH8.0) formulated from 5% skimmed milk for 2 hours; 6) wash the membrane, seal at 4° C. overnight by use of an anti-phosphorylated VEGFR2 antibody (1:1000 dilution, cell Signaling company, US); 7) on the second day after washing membrane, horse radish peroxidase marked goat anti-rabbit second antibody (cell Signaling company, US) was incubated with the membrane at room temperature for 1 hour; 8) develop with chemiluminescence kit (Millipore company) after washing membrane, and take photos.

corneal angiogenesis = test: Mice corneal chemical burn model; settings: 100 uM subconjunctival injection then drops twice a day, 7 days
PDGFR-β = molecular target: T3, PDGFR-β (Homo sapiens, UniProt P09619); test: Kinase inhibition dosage effect, PDGFR-β; format: biochemical; settings: for IC50: [ATP] 30 μM, 3 hr; for Hill PDGFR-β: dose-effect curve fit
T3 construct: purchased Upstate
T3 sequence (P09619 33-1106, species assumed): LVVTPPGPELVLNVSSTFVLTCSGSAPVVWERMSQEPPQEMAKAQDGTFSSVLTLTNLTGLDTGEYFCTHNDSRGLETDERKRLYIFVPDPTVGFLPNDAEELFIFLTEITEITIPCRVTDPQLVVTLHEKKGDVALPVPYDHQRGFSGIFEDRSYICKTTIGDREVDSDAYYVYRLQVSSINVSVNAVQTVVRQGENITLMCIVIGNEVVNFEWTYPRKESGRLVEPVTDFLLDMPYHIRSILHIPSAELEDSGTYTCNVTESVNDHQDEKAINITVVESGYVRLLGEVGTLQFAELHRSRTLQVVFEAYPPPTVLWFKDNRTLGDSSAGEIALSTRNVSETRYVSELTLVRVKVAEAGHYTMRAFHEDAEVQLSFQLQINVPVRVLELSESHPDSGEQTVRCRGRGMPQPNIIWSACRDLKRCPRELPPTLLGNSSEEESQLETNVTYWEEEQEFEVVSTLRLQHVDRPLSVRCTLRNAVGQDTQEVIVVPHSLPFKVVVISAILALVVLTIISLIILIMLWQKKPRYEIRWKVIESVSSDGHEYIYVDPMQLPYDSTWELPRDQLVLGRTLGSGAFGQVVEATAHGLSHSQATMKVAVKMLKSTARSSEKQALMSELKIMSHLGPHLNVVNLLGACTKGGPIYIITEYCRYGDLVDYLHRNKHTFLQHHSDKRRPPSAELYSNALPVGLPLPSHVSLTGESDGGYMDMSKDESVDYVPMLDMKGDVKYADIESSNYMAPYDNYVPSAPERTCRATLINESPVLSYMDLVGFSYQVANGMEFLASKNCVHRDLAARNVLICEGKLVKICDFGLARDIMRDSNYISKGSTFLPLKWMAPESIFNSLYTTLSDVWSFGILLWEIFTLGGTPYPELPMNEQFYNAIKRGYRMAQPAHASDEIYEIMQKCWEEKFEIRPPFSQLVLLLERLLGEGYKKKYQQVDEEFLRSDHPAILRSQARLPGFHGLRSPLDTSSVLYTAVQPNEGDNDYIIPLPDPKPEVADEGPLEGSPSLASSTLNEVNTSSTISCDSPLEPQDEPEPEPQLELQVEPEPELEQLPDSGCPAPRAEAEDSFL

choroidal angiogenesis = test: Laser-induced choroidal angiogenesis (CNV) animal model; format: in vivo, c57/BL mice; settings: 1 uM injected into the eye after laser, 5 days
Description: The […]57/BL (Jax Lab, US), and the experiment is conducted on laser-induced Choroidal Angiogenesis (CNV) animal model. This model is a widely used animal model used for studying the influence of a medicament on CNV development of wet macular degeneration. […] Only the laser points, which were observed as bubble indicating the fracture of Bruch membrane, were considered to be studied. Inject immediately after laser implementation: the right eye was injected 1 uM compound 2-2, and the left eye was injected PBS having the same volume as the medicament as a control. Kill the animal 5 days after injection and obtain the eyeball. After removing the anterior segment, vitreous body and retina, prepare flat mounts of choroid and meanwhile dye with isolectin. Take photos by Zeiss fluorescence microscope system and measure CNV area.

PI3K-α = molecular target: T4, PI3K-α (Homo sapiens, UniProt P42336); test: Inhibition specificity, PI3K-α (ADP-Glo); format: biochemical; settings: 5000 nM, average of two tests; read-out: Average Inhibition Rate (%) PI3K-α
T4 construct: purchased INVITROGEN
T4 sequence (P42336 whole entry, species assumed): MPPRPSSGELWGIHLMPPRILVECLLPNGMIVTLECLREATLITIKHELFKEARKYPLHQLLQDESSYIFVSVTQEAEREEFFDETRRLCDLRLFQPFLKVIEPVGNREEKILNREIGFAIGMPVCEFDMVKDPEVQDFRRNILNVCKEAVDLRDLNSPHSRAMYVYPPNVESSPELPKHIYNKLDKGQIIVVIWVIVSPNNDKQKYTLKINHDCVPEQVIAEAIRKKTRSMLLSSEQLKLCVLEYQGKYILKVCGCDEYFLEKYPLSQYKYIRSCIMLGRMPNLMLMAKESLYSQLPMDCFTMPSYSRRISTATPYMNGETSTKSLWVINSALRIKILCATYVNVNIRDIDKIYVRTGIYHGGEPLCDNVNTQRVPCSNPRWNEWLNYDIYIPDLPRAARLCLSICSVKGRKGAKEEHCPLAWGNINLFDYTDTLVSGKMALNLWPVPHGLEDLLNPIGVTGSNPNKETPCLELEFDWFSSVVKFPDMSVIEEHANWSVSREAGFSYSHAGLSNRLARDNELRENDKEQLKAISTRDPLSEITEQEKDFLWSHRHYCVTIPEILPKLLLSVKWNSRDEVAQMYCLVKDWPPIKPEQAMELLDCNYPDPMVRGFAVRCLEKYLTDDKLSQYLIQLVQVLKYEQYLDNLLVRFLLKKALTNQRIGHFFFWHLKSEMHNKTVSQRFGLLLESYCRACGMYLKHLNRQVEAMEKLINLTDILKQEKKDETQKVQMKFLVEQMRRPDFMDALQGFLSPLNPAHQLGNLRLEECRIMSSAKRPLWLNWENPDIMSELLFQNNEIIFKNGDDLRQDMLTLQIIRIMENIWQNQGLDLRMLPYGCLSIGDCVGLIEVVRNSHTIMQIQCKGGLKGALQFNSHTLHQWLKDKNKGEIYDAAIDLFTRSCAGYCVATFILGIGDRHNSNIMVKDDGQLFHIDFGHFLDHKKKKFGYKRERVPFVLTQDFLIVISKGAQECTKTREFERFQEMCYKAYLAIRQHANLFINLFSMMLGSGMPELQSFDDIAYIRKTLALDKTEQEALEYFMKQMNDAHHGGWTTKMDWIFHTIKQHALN
T4 sequence (P27986 whole entry partner, species assumed): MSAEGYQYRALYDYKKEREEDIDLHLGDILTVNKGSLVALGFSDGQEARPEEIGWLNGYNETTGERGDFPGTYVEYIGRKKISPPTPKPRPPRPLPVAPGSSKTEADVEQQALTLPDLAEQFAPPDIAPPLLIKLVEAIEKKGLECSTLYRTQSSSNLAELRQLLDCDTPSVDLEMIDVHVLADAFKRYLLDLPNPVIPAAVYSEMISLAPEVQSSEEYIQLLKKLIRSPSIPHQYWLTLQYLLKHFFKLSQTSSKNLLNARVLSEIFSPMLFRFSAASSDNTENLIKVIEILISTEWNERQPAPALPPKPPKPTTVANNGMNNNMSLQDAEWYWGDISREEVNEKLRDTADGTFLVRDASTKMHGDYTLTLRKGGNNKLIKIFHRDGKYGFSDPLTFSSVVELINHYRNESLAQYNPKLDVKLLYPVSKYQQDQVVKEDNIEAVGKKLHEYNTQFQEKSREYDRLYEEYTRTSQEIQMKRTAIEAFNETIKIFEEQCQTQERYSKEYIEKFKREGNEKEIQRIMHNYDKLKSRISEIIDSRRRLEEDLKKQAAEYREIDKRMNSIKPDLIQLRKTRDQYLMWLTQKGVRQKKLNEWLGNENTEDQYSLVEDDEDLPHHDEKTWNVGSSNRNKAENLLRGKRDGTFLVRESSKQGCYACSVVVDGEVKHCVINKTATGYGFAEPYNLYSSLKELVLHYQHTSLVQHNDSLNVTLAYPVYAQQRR

GSK-3-β = molecular target: T5, GSK-3-β (Homo sapiens, UniProt P49841); test: Inhibition specificity, GSK-3-β; format: biochemical; settings: 5000 nM, average of two tests; read-out: Average Inhibition Rate (%) GSK-3-β
T5 construct: purchased UPSTATE
T5 sequence (P49841 whole entry, species assumed): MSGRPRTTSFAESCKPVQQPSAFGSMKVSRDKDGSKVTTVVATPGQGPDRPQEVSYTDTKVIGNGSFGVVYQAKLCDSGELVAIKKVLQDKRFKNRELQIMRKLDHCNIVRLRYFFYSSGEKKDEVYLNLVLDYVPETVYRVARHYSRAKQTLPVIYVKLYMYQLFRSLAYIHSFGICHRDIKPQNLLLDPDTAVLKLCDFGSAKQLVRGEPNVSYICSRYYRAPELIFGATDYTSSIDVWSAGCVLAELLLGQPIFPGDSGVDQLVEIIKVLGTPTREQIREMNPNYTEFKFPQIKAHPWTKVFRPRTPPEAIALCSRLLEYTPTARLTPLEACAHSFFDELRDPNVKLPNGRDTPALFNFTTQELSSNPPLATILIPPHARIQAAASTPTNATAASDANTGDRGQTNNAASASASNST

FGFR2 = molecular target: T6, FGFR2 (Homo sapiens, UniProt P21802); test: Inhibition specificity, FGFR2; format: biochemical; settings: 5000 nM, average of two tests; read-out: Average Inhibition Rate (%) FGFR2
T6 construct: purchased CARNA

T1 sequence (Q16539 whole entry): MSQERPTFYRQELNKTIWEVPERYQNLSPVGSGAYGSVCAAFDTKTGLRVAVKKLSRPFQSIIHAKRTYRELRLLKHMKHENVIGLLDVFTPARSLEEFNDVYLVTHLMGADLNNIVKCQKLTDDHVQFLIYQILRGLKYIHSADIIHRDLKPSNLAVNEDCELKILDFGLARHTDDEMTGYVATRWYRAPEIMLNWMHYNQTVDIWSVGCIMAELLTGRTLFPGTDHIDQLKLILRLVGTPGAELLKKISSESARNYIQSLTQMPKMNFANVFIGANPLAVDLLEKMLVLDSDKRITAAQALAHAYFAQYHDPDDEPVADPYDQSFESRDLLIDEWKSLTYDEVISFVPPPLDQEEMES

Row | SMILES | inhibition at 5 µM (P38-α) [%] | inhibition of VEGFR2 (in words, FIG. 8) (VEGFR2) | inhibition activity on PDGFR-β (in words) (PDGFR-β) | IC50 (PDGFR-β) [µM] | Inhibition Rate on PDGFR-β (%) (PDGFR-β; concentration 0.0002823 (uM)) | Inhibition Rate on PDGFR-β (%) (PDGFR-β; concentration 0.0008468 (uM)) | Inhibition Rate on PDGFR-β (%) (PDGFR-β; concentration 0.0025403 (uM)) | Inhibition Rate on PDGFR-β (%) (PDGFR-β; concentration 0.0076208 (uM)) | Inhibition Rate on PDGFR-β (%) (PDGFR-β; concentration 0.0228624 (uM)) | Inhibition Rate on PDGFR-β (%) (PDGFR-β; concentration 0.0685871 (uM)) | Inhibition Rate on PDGFR-β (%) (PDGFR-β; concentration 0.2057613 (uM)) | Inhibition Rate on PDGFR-β (%) (PDGFR-β; concentration 0.6172840 (uM)) | Inhibition Rate on PDGFR-β (%) (PDGFR-β; concentration 1.8518519 (uM)) | Inhibition Rate on PDGFR-β (%) (PDGFR-β; concentration 5.5555556 (uM)) | Inhibition Rate on PDGFR-β (%) (PDGFR-β; concentration 16.6666667 (uM)) | Inhibition Rate on PDGFR-β (%) (PDGFR-β; concentration 50 (uM)) | Hill PDGFR-β (PDGFR-β) | inhibition at 5 µM (PI3K-α) [%] | inhibition at 5 µM (GSK-3-β) [%] | inhibition at 5 µM (FGFR2) [%] | other results
1 | Nc1nccc(Oc2ccc3c(C(=O)Nc4cccc(C(F)(F)F)c4)cccc3n2)n1 [Compound 2-2] | ~80 | can inhibit VEGFR2 | good inhibition activity | 0.15 | 0.62 | 0.49 | −0.84 | 2.85 | 15.13 | 34.21 | 55.90 | 78.29 | 91.57 | 96.43 | 97.95 | 98.80 | 0.92 | -7.1 | 0.555 | > 61 | effect on corneal angiogenesis and bleeding (in words, FIG. 11) (corneal angiogenesis): obviously reduces angiogenesis and bleeding; inhibition of choroidal angiogenesis (in words, FIG. 9) (choroidal angiogenesis): could obviously inhibit the choroidal angiogenesis; also recorded: obviously inhibiting choroidal angiogenesis
2 | Nc1cc(Oc2ccc3c(C(=O)Nc4cccc(C(F)(F)F)c4)cccc3n2)ncn1 [Compound 2-1] | 16.9 | can inhibit VEGFR2 | good inhibition activity | 1.94 | 0.72 | 2.69 | 0.80 | 1.43 | 7.89 | 10.09 | 12.85 | 23.86 | 46.85 | 73.86 | 86.35 | 85.78 | 1.09 | 6.78 | -0.57 | ~36 | –
